Source: US20180369203A1, “METHODS OF TREATING CANCER BY ADMINISTERING A MEK INHIBITOR IN COMBINATION WITH A PROTEASOME INHIBITOR” (The Jackson Laboratory, priority 2015, published 2018)

What was measured:
GR-GFP = GR-GFP protein stability in HEK293T cells (immunoblotting); type: cell-based; details: 100 nM Bortezomib, 4 hrs
Source text: This figure is related to FIG. 4. (A) HSF1 stabilizes GR-GFP proteins. Both GR-GFP and HA-Ub-K48 plasmids were co-transfected with LacZ or FLAG-HSF1 plasmids into HEK293T cells stably expressing scramble or HSF1-targeting shRNAs. HA-Ub-K48 plasmids encode a mutant ubiquitin that can be conjugated to protein substrates only via lysine 48. GFP-GR proteins were precipitated and ubiquitination was detected by anti-HA immunoblotting. (B) HSF1 maintains cellular chaperoning capacity. Denatured firefly luciferases were incubated with proteins extracted from HEK293T cells stably expressing scramble or HSF1-targeting shRNAs that were transfected with LacZ or FLAG-HSF1 plasmids (mean±SD, n=5, ANOVA). […] Levels of GFP and GR-GFP proteins were detected by immunoblotting. […] Following treatments with 20 μM U0126, 20 nM AZD6244, or 100 nM Bortezomib for 4 hrs, the chymotrypsin-like, trypsin-like, and caspase-like proteasomal activities in A2058 cells (D) and HEK293T cells (E) were measured in vitro using 25 μM Z-LLL-AMC, Boc-LRR-AMC, and Z-LLE-AMC substrates respectively (mean±SD, n=3, ANOVA). […] Lys48-specific protein ubiquitination was detected by immunoblotting in both detergent-soluble and -insoluble fractions. […] Lys48-specific protein ubiquitination was detected by immunoblotting in both detergent-soluble and -insoluble fractions of HEK293T cells that stably expressed scramble or MEK1/2-targeting shRNAs. […]

polyQ79-expressing cells = assay: ThT and CR staining of polyQ79-expressing cells (flow cytometry); type: cell-based; details: HEK293T; 20 nM AZD6244, 100 nM Bortezomib, or both
Method: FIGS. 5A-Y show MEK and proteasome inhibition provoke protein aggregation and amyloidogenesis. (A-B) WM115 cells treated with 20 nM AZD6244, 100 nM Bortezomib, or both for 24 hr were stained with Lys48-specific ubiquitin antibodies. Arrowheads mark ubiquitin-positive aggregates. Scale bar: 10 μm. Amounts of aggregates per cell were quantitated using ImageJ (median, n≥100, ANOVA). (C-F) Following transfection with polyQ79 plasmids alone or with both polyQ79 and HSF1^S326D plasmids for one day, HEK293T cells were treated with inhibitors as described in (A-B). Cells were either analyzed for aggregate size or stained with 10 μM ThT. (G) Treated tumor cell lines were stained with 10 μM ThT. Geometric means were used to calculate fold changes in ThT fluorescence intensity and the log 2(FC) values were presented as a heat map. (H) HEK293T cells were transfected with LacZ or polyQ79 plasmid. Following treatments, AOs were quantitated by ELISA using A11 antibodies (mean±SD, n=3, ANOVA). (I) Intrinsic AOs were detected in human tumor cell lines (mean±SD, n=3, ANOVA). […] Amyloids were quantitated by ELISA (mean±SD, n=3, Student's t-test). […] AF formation was monitored by ThT binding (mean±SD, n=3, ANOVA). […] Amyloids were quantitated (mean±SD, n=3, Student's t-test). […] Viable cells were quantitated by CellTiter® blue (mean±SD, n=6, Student's t-test). […] Viable cells were quantitated (mean±SD, n=6, ANOVA). […]

Compound: CC(C)C[C@H](NC(=O)[C@H](Cc1ccccc1)NC(=O)c1cnccn1)B(O)O [Bortezomib, bortezomib]
- GR-GFP protein level (GR-GFP): caused GR-GFP accumulation
- ThT and CR staining of polyQ79-expressing cells (polyQ79-expressing cells): further intensified
